Legend:
breast carcinoma = conditions: cited from earlier work; for lifetime effect in reducing the appearance of breast carcinoma: treated rats compared to other rats receiving carcinogen at the same time; for percent of the rats developed cancer in 7 months / percent of the rats developed cancer in one year: rats treated with drug and a carcinogen; for percent of the rats developed cancer in 7 months: incidence at 7 months; for percent of the rats developed cancer in one year: incidence at one year
[1] = system: breast cancers induced by a carcinogenic chemical; conditions: cited from earlier work
mammary carcinoma = assay: Anti-mammary carcinogenic activity in female rats fed DMBA, hormone given by pellet or minipump; assay type: in vivo, Sprague-Dawley rats; conditions: doses that do not have undesirable side effects
Protocol: In tests for anti-mammary carcinogenic activity following the feeding of carcinogen to mammals, ten different estrogenic compounds were implanted in female rats fed a carcinogen. The incidence of breast cancer for each compound was determined. Rats receiving only the carcinogen were used as controls. Ethynyl estriol was obtained from Eli Lilly, Inc., Greenfield, Indiana; the other estrogens were obtained from Sigma, Inc., St. Louis, Missouri, or Steraloids, Inc., Wilton, New Hampshire.
In all of the tests, intact female Sprague-Dawley rats, obtained from Sasco, Inc., Omaha, Nebraska, at 50 to 55 days of age were used.
They were: (1) randomized upon receipt; (2) housed individually in suspended cages; (3) fed Purina Lab Chow and distilled water; and (4) the temperature was maintained within 22-23 degrees and 40-50 percent relative humidity. […]
Rats free of neoplasms were followed for one year. […] Significant differences in cancer incidence between treated and controlled groups were determined.
The differences in cancer incidence between treated and controlled groups in each experiment were determined by X2 using the Yate's correction. […] The significance of difference in mammary-carcinoma-free survival in rate-days was determined for these groups at 210 days after DMBA administration using the Mann-Whitney U Test. […]

[2] = in vitro by tissues; cited from earlier work
[3] = in animals; cited from earlier work

| SMILES | percent of the rats developed cancer in 7 months (breast carcinoma) | percent of the rats developed cancer in one year (breast carcinoma) | other results |
| --- | --- | --- | --- |
| COc1ccc2c(c1)CC[C@@H]1[C@@H]2CC[C@]2(C)[C@@H](O)[C@H](O)C[C@@H]12 [estriol 3-methyl ether] | – | – | lifetime effect in reducing the appearance of breast carcinoma (breast carcinoma): 30-50% |
| C[C@]12CC[C@@H]3c4ccc(O)cc4CC[C@H]3[C@@H]1C[C@@H](O)[C@@H]2O [estriol] | 26% | 63% | inhibiting the development of breast cancers [1]: moderately effective |
| C#C[C@]1(O)[C@H](O)C[C@H]2[C@@H]3CCc4cc(O)ccc4[C@H]3CC[C@@]21C [17 alpha ethynyl estriol] | – | – | risk of mammary carcinoma (mammary carcinoma): reduce the risk of mammary carcinoma |
| C#C[C@]1(O)CC[C@H]2[C@@H]3CCc4cc(O)ccc4[C@H]3CC[C@@]21C [17 alpha ethynyl estradiol 17 beta] | 90% | 100% | – |
| C[C@]12CC[C@@H]3c4cc(O)c(O)cc4CC[C@H]3[C@@H]1CC[C@@H]2O [2-OH estradiol 17 beta] | 78% | 94% | – |
| C[C@]12CCc3c(ccc4cc(O)ccc34)[C@@H]1CCC2=O [d-equilenin] | – | – | position of oxidation [2]: almost exclusively at the C4 (R1) position |
| C[C@]12CC[C@@H]3c4ccc(O)cc4C(=O)C[C@H]3[C@@H]1CC[C@@H]2O [6 keto estradiol, 6-keto estradiol 17 beta] | 31% | 61% | lifetime effect in reducing the appearance of breast carcinoma (breast carcinoma): 30-50% |
| C#C[C@]1(O)CC[C@H]2[C@@H]3CCc4cc(O)ccc4[C@H]3[C@@H](OC)C[C@@]21C [11 beta methoxy 17 alpha ethynyl estradiol 17 beta] | – | – | carcinogenicity [3]: carcinogenic in animals |
| CC/C(=C(\c1ccccc1)c1ccc(OCCN(C)C)cc1)c1ccccc1 [tamoxifen] | 78% | 89% | – |
| CC/C(=C(/CC)c1ccc(O)cc1)c1ccc(O)cc1 [diethylstilbestrol] | 88% | 100% | – |

Source: patent publication EP0240717A2, “Prevention of mammary carcinoma” (The Board of Regents of the University of Nebraska, priority 1986, dated 1987)
